This is an account of results in patent US6469010B1, “Medicament for the alleviation or treatment of symptom derived from the ischemic disease and compound useful thereof” (Suntory Limited, priority 1995, dated 2002).

In one series the test system is Na+ channel. Kind of series: Veratridine-induced sodium channel activity inhibiting action (membrane potential of synaptosomes, Rhodamine 6G). The format is biochemical, Wistar rats. The note with it: 0.1 μM of compound; rat brain synaptosomes, veratridine-induced depolarization. As for the experimental part: Veratridine-induced Sodium Channel Activity Inhibiting Action
The membrane potential of the synaptosomes prepared from the brain membrane of Wistar rats (male, 10 to 12 weeks old) was measured by the method of Aiuchi et al. [T. Aiuchi et al: Biochimi. Biophys. Acta.

The next series in a line: Acute toxicity test. The note with it: male, mouse, in vivo, iv, ddY mice, death rate up to 24 hours after administration. As for the experimental part:
Medicine was intravenously administered to ddY mice (male, 6 weeks old). The 50 percent lethal dosage LD50 of the acute toxicity was calculated by an ordinary method from the death rate up to 24 hours after administration.

Another series concerns T-type Ca2+ channel. Kind of series: T-type calcium channel inhibiting action (whole-cell patch clamp, hippocampal CA1 pyramidal cells). The note with it: rat hippocampal CA1 pyramidal cells; suppression of peak current after one minute of application. The format is cell-based, Wistar rats. How it is done: T-Type Calcium Channel Inhibiting Action
The hippocampal CA1 pyramidal cells were isolated from Wistar rats (female, 1 week old) in accordance with the method of Takahashi et al. K. Takahashi et al.; J Pharmacol. Exp; Ther., 256, 169 (1991)] and the T-type calcium current under conditions of a fixed membrane potential was measured using the whole-cell configuration of the pach clamp technique. The effects of the compounds were evaluated from the rate of suppression of the peak current after one minute of application using the concentration clamp method.

The target of the next series is T1, Dopamine D2 receptor (Rattus norvegicus, UniProt P61169).
T1 construct: membrane fraction prepared from the striatum of Wister male rats; from tissue; host or cells: rat striatum membrane fraction
T1 sequence (P61169 whole entry): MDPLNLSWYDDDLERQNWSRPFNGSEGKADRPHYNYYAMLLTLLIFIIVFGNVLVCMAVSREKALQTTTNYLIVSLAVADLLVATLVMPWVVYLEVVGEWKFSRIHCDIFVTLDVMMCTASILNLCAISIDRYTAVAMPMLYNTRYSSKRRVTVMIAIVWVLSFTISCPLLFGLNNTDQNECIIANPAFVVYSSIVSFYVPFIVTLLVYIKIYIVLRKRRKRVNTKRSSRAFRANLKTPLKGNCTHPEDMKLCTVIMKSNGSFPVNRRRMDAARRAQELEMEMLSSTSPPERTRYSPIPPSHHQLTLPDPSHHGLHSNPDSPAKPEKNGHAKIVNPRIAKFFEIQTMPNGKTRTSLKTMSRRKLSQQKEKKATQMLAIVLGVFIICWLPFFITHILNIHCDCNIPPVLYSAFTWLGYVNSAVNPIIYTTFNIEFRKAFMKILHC
Kind of series: Dopamine D2 receptor blocking action ([3H]raclopride binding, striatum membrane fraction). The arrangement: species or system Wister male rats. The following applies: 1.0 nM [3H]raclopride, 25° C., one hour. How it is done: Dopamine D2 Receptor Blocking Action
57 μl of the membrane fraction prepared from the striatum of Wister male rats,(6 weeks old) was incubated in a buffer at 25° C. for one hour along with the compound and 1.0 nM [^3H) raclopride. A GF/C glass filter (0.1% polyethylene imine treatment) was used for separation of the B and F, then the radioactivity was measured by a beta plate and the effect of the compound was evaluated.

The subject of a further series is DBA/2N mice. Kind of series: Audiogenic seizure suppressing action. The format is in vivo. The note with it: Mus musculus, ip, 20 min; compound 10 mg/kg, i.p.; audio stimulus after 20 minutes; suppression of average seizure score; read-out: Antiseizure action (suppression rate %). As for the experimental part:
Audiogenic Seizure Suppressing Action
The audiogenic seizure suppressing action of the compounds was evaluated by the method of Sarro et al. [G. B. De Sarro et al.; Br. J. Pharmacol., 93, 247 (1988)]. That is, DBA/2N mice (male, 3 weeks) were administered with the compound dissolved in 10% 2-hydroxypropyl-β-cyclodextrin intraperitoneally. After 20 minutes, a supersonic washer was used to apply audio stimulus of at least 90 dB for one minute. The wild running (WR), clonic seizures (clonus), tonic seizures (tonus), and respiratory arrest (RA) were evaluated. The seizure suppressing action was evaluated from the rate or suppression of the average value of the seizure score found from 0=no response, 1=WR, 2=clonus, 3=tonus, and 4=RA.

SMILES strings stand for the structures. pIC50: −log10 of the molar value.

Regarding `c1ccc(Oc2ccc(C3CCN(C[C@@H]4C[C@H]4c4ccccc4)CC3)cc2)cc1` (relative stereo) [Compound 26, 4-(phenoxyphenyl)-1-[trans-(2-phenyl)cyclopropylmethyl]piperidine], the “Antiveratridine action (inhibiting rate %)” value in the series on Na+ channel turned out to be 36.5%. In the series “Acute toxicity test”, this molecule yielded a 50% lethal dose (LD50) at 24 h of 32.9 mg/kg. The pIC50 is 5.55 in the series on T-type Ca2+ channel and 5.47 at Dopamine D2 receptor. For the same molecule, the inhibition in vivo at 10 mg/kg in the series on DBA/2N mice stood at 78%.

`C(=C\c1ccccc1)/CN1CCC(c2ccc(Oc3ccccc3)cc2)CC1` [Compound 21, (E)-4-(4-phenoxyphenyl)-1-(3-phenyl-2-propenyl)piperidine]: the “Antiveratridine action (inhibiting rate %)” value with Na+ channel was found to be 20.3%. In the series “Acute toxicity test”, this molecule registered an LD50 at 24 h of 40.9 mg/kg. For the same molecule, the results for the negative logarithm of the IC50 (pIC50) in the series with T-type Ca2+ channel and on Dopamine D2 receptor were 6.10 and 5.57, respectively. The inhibition in vivo at 10 mg/kg with DBA/2N mice was found to be 77.3%.

Take `Fc1ccc(Cc2ccc(C3CCN(C/C=C/c4ccccc4)CC3)cc2)cc1` [Compound 32, (E)-4-[4-(4-fluorophenyl)methylphenyl]-1-(3-phenyl-2-propenyl)piperidine]: in the series on Na+ channel, the “Antiveratridine action (inhibiting rate %)” value came to 33.3%. The LD50 at 24 h in the series “Acute toxicity test” amounted to 32.9 mg/kg. For the same molecule, the pIC50 in the series with T-type Ca2+ channel is 6.22; at Dopamine D2 receptor it was 5.47. The inhibition in vivo at 10 mg/kg in the series on DBA/2N mice turned out to be 94%.

Consider `Fc1ccc(Cc2ccc(N3CCN(C/C=C/c4ccccc4)CC3)cc2)cc1` [Compound 47], for which the “Antiveratridine action (inhibiting rate %)” value with Na+ channel is 22.9%. This molecule displayed an LD50 at 24 h in “Acute toxicity test” of 43.2 mg/kg. Further, the pIC50 in the series on T-type Ca2+ channel was 5.57; at Dopamine D2 receptor, 5.40. Moreover, the inhibition in vivo at 10 mg/kg in the series on DBA/2N mice stood at 64.1%.

With `COc1cc(/C=C/CN2CCN(c3ccc(Cc4ccc(F)cc4)cc3)CC2)ccc1O` [Compound 49], the “Antiveratridine action (inhibiting rate %)” value with Na+ channel stood at 17.3%. In addition, the pIC50 at Dopamine D2 receptor was 6.01. In the series on DBA/2N mice, the inhibition in vivo at 10 mg/kg was 60%.

For the molecule `Fc1ccc(/C=C/CN2CCN(c3ccc(Cc4ccc(F)cc4)cc3)CC2)cc1` [Compound 50, (E)-1-[4-(4-fluorophenyl)methylphenyl]-4-[3-(4-fluorophenyl)-2-propenyl]-piperazine], the pIC50 in the series on T-type Ca2+ channel was 5.38. Also, the inhibition in vivo at 10 mg/kg in the series on DBA/2N mice stood at 72%.

As for `c1ccc(Oc2ccc(C3CCN(CC4(c5ccccc5)OCCO4)CC3)cc2)cc1` [Compound 73, 2-[4-(4-phenoxyphenyl)piperidin-1-yl]methyl-2-phenyl-1,3-dioxolane], in the series with Na+ channel, the “Antiveratridine action (inhibiting rate %)” value came out at 16.1%. Also, the pIC50 with T-type Ca2+ channel was 5.34. Moreover, in the series with DBA/2N mice, the inhibition in vivo at 10 mg/kg was determined as 52.2%.

With `COc1ccc(Cc2ccc(C3CCN(C/C=C/c4ccccc4)CC3)cc2)cc1` [Compound 75, 4-[4-(4-methoxyphenyl)methylphenyl]-(E)-1-(3-phenyl-2-propenyl)piperidine], the “Antiveratridine action (inhibiting rate %)” value with Na+ channel stood at 55.2%. Further, the pIC50 with T-type Ca2+ channel was 5.85. Also, in the series with DBA/2N mice, the inhibition in vivo at 10 mg/kg is 99%.

In the case of `OC(CN1CCC(c2ccc(Cc3ccc(F)cc3)cc2)CC1)c1ccccc1` (stereo not shown) [Compound 79, 4-[4-(4-fluorophenyl)methylphenyl]-1-(2-hydroxy-2-phenyl)ethylpiperidine], in the series on Na+ channel, the “Antiveratridine action (inhibiting rate %)” value is 37.1%. In addition, the pIC50 in the series on T-type Ca2+ channel was 5.51. For the same molecule, the inhibition in vivo at 10 mg/kg in the series with DBA/2N mice was determined as 79.8%.

For the molecule `OC(COc1ccccc1)CN1CCC(c2ccc(Oc3ccccc3)cc2)CC1` (stereo not shown) [Compound 80, 1-(2-hydroxy-3-phenoxy)propyl-4-(4-phenoxyphenyl)piperidine], in the series on Na+ channel, the “Antiveratridine action (inhibiting rate %)” value is 49.7%. The pIC50 in the series with T-type Ca2+ channel was 5.72. Moreover, the inhibition in vivo at 10 mg/kg with DBA/2N mice amounted to 66.3%.
